One may read the inhibition as the change of the read-out against control, counted positive when it falls. The term IC50 denotes the concentration that gives 50% inhibition.

For experiment [1], the target named is T1, 11-beta-hydroxysteroid dehydrogenase 1 (Homo sapiens, UniProt P28845). Nature of the experiment: Inhibition of human microsomal 11beta-HSD1 overexpressed in HEK293 cells using [3H]-cortisone as substrate assessed as formation of [3H]-cortisol at 10 uM by scintillation proximity assay in presence of NADPH relative to control.
Target sequence in this assay (P28845 whole entry, looked up): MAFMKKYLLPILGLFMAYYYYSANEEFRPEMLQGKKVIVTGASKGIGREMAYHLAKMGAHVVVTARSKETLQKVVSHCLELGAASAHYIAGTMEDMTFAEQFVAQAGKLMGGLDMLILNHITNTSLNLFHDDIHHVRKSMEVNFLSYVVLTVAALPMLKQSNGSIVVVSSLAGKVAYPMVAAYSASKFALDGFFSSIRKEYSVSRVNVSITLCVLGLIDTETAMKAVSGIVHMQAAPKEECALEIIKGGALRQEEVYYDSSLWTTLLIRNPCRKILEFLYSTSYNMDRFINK
Experiment [2] has as its target 11-beta-hydroxysteroid dehydrogenase 1 (Mus musculus) (UniProt P50172). Nature of the experiment: Inhibition of mouse microsomal 11beta-HSD1 overexpressed in HEK293 cells using [3H]-cortisone as substrate assessed as formation of [3H]-cortisol at 10 uM by scintillation proximity assay in presence of NADPH relative to control.
In experiment [3] the target is 11-beta-hydroxysteroid dehydrogenase 1 (Mus musculus, UniProt P50172). Nature of the experiment: Inhibition of mouse microsomal 11beta-HSD1 overexpressed in HEK293 cells using [3H]-cortisone as substrate assessed as formation of [3H]-cortisol by scintillation proximity assay in presence of NADPH. (SPA uses beads or plates that emit light when radiolabelled molecules are held near them.)

Experiment [4] addresses T1, 11-beta-hydroxysteroid dehydrogenase 1. The experiment in a line: Inhibition of human microsomal 11beta-HSD1 overexpressed in HEK293 cells using [3H]-cortisone as substrate assessed as formation of [3H]-cortisol by scintillation proximity assay in presence of NADPH.
Target sequence in this assay (P28845 whole entry): as the sequence (P28845 whole entry, looked up) above

Structures are written as SMILES.

11-beta-hydroxysteroid dehydrogenase 1 (Mus musculus), sequence (P50172 whole entry, looked up): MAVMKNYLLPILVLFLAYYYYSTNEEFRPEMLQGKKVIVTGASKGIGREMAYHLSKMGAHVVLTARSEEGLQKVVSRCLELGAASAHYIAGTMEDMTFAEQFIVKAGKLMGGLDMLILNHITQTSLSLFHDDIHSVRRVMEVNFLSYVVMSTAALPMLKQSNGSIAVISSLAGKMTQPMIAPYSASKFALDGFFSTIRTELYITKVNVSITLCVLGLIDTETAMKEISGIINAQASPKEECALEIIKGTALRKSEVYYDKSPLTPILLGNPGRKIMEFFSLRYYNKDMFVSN
11-beta-hydroxysteroid dehydrogenase 1 (Mus musculus, UniProt P50172), sequence (P50172 whole entry): as the sequence (P50172 whole entry, looked up) above

Take `CC(C)(O)[C@@H](O)[C@H]1C[C@@H]([C@@H]2CC[C@]3(C)C4=CC[C@H]5C(C)(C)[C@@H](O)CC[C@]5(C)[C@H]4CC[C@@]23C)C(=O)O1`: the inhibition in experiment [1] and in experiment [2] was greater than 60% in each case. The 50% inhibitory concentration (IC50) in experiment [3] was determined as 0.82 µM; in experiment [4], 3.2 µM.
Take `CC(C)=CC(=O)[C@@H](O)[C@H](C)[C@@H]1CC[C@]2(C)C3=CC[C@H]4C(C)(C)[C@H](O)CC[C@]4(C)[C@H]3C[C@@H](O)[C@@]12C`: the inhibition in experiment [1] and in experiment [2] was 45% throughout.
On to `CCC(C)C(=O)O[C@@H]1C[C@H]2C(C)(C)C(=O)C=C[C@]2(C)[C@H]2[C@@H](OC(C)=O)C[C@]3(C)C(=CC(=O)[C@H]3c3ccoc3)[C@@]21C` (relative stereo), for which the inhibition in experiment [1] is greater than 50%. Moreover, the IC50 in experiment [4] worked out at 11.4 µM.
Turning to `CC(C)=CC(=O)[C@@H](O)[C@H](C)[C@@H]1CC[C@]2(C)C3=CC[C@H]4C(C)(C)[C@@H](O)CC[C@]4(C)[C@H]3C[C@@H](O)[C@@]12C`, the inhibition in experiment [1] and in experiment [2] was greater than 60% in each case. Moreover, the values for the IC50 in experiment [3] and in experiment [4] were 1.15 µM and 3.74 µM, respectively.
